According to patent publication US11214803B2, “Modulators of YAP1 expression” (Ionis Pharmaceuticals, Inc., priority 2019, dated 2022):
Marks after values point to notes of the source that are not given here. Strand notation (5' to 3'): a small letter for the sugar, then the base; units joined by * are phosphorothioate-linked, units joined directly phosphodiester-linked; [ ] holds rarer units or linkages, { } end groups; capitals alone tell only the bases. k = constrained ethyl (cEt); [5mC] = 5-methylcytosine; d = 2'-deoxy (DNA)

System: Yap1 mRNA
Assay: Antisense inhibition of human Yap1 in A-431 cells by cEt gapmers, single dose (Example 4, RTS4814)
Assay type: cell-based
Settings: Table 14; A-431 cells, 5,000 cells per well, free uptake, 2,000 nM, approximately 48 hours; RTS4814; normalized to RIBOGREEN; Yap1 mRNA relative to untreated control; * = targets amplicon region of primer probe set
Outline: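 Values are % UTC: Yap1 mRNA by quantitative RT-PCR, normalized to RIBOGREEN total RNA. Cells were exposed ~48 h to 2,000 nM oligonucleotide without transfection. Oligonucleotides were 16-nucleoside gapmers with three cEt nucleosides per wing, ten-deoxy gap, P=S linkages throughout.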

Substance | YAP1 (% UTC)
1074944 (antisense kA*kA*kA*dA*d[5mC]*d[5mC]*d[5mC]*dT*dT*dT*dG*dG*dT*k[5mC]*kT*k[5mC]) [Compound 1074944] | 89
1075744 (kT*kT*k[5mC]*dG*dG*dG*dT*dT*dA*dG*d[5mC]*dA*dG*kA*k[5mC]*kT; antisense) [Compound 1075744] | 6
1074912 (antisense kA*kT*k[5mC]*d[5mC]*d[5mC]*dG*dA*dG*dT*dG*dG*dG*d[5mC]*kT*kA*kA) [Compound 1074912] | 85
1075168 (antisense k[5mC]*kA*kT*d[5mC]*dA*dA*dA*dA*dT*dT*dT*d[5mC]*dA*k[5mC]*kG*kA) [Compound 1075168] | 49
1076192 (k[5mC]*kT*kA*d[5mC]*dA*dA*d[5mC]*d[5mC]*dT*dG*dG*dA*d[5mC]*kT*kT*kT; antisense) [Compound 1076192] | 34
1075616 (kG*kT*kA*dA*dA*dA*d[5mC]*d[5mC]*dG*dA*dT*dT*dT*kT*kT*k[5mC]; antisense) [Compound 1075616] | 46
1076032 (kT*kA*kT*dA*dA*dT*dT*dT*d[5mC]*d[5mC]*d[5mC]*dT*dG*kA*kT*k[5mC]; antisense) [Compound 1076032] | 105
1076416 (kA*k[5mC]*k[5mC]*dG*dA*dA*dA*dT*dG*dA*dT*dA*d[5mC]*kT*kG*kA; antisense) [Compound 1076416] | 8

Same assay, conditions: Table 15; A-431 cells, 5,000 cells per well, free uptake, 2,000 nM, approximately 48 hours; RTS4814; normalized to RIBOGREEN; Yap1 mRNA relative to untreated control; * = targets amplicon region of primer probe set

Substance | YAP1 (% UTC)
1075009 (antisense kA*kT*kA*dA*dT*d[5mC]*dG*dA*dA*d[5mC]*dA*dT*dT*kG*kT*kG) [Compound 1075009] | 43
1074849 (kT*kG*kT*dT*dA*dT*dG*dA*dT*dA*dG*dG*d[5mC]*kA*k[5mC]*kA; antisense) [Compound 1074849] | 18
1076545 (antisense kA*kA*k[5mC]*d[5mC]*dA*dA*d[5mC]*d[5mC]*dT*dT*d[5mC]*d[5mC]*d[5mC]*kT*kA*k[5mC]) [Compound 1076545] | 68
1075681 (kT*kA*kA*dT*dT*dA*dT*dT*dA*d[5mC]*d[5mC]*d[5mC]*d[5mC]*kT*kT*k[5mC]; antisense) [Compound 1075681] | 37
1075361 (kT*k[5mC]*kT*dT*dA*dA*dG*dG*dG*dA*dA*dT*dG*kT*kA*kT; antisense) [Compound 1075361] | 69
1074209 (antisense k[5mC]*k[5mC]*kG*dG*dA*dG*d[5mC]*d[5mC]*dT*d[5mC]*dA*dT*dG*kG*kG*k[5mC]) [Compound 1074209] | 72
1074529 (kG*k[5mC]*kA*dG*dA*d[5mC]*dT*dG*d[5mC]*d[5mC]*d[5mC]*d[5mC]*dA*kA*k[5mC]*k[5mC]; antisense) [Compound 1074529] | 50

Same assay, conditions: Table 16; A-431 cells, 5,000 cells per well, free uptake, 2,000 nM, approximately 48 hours; RTS4814; normalized to RIBOGREEN; Yap1 mRNA relative to untreated control cells

Substance | YAP1 (% UTC)
1075330 (kG*kA*kG*dG*dG*dA*dA*dA*dA*d[5mC]*dT*dT*dT*kG*k[5mC]*kA; antisense) [Compound 1075330] | 63
1074914 (antisense kT*kT*kA*d[5mC]*dA*dT*d[5mC]*d[5mC]*d[5mC]*dG*dA*dG*dT*kG*kG*kG) [Compound 1074914] | 97
1075362 (k[5mC]*kA*kG*dG*dA*dA*dA*dA*dA*dT*d[5mC]*dT*dA*kG*kG*kT; antisense) [Compound 1075362] | 50
1074338 (antisense kG*kG*kA*dT*dT*dT*dT*dG*dA*dG*dT*d[5mC]*d[5mC]*k[5mC]*kA*k[5mC]) [Compound 1074338] | 77
1074978 (antisense kT*kT*kG*d[5mC]*d[5mC]*dA*dG*dT*dT*d[5mC]*dT*dT*dG*kT*kT*k[5mC]) [Compound 1074978] | 38
1076482 (antisense k[5mC]*kT*kT*dT*dA*dG*dA*d[5mC]*dT*dA*dA*dG*dT*kA*kA*kG) [Compound 1076482] | 107
1074146 (antisense kG*kA*kA*dG*d[5mC]*dG*dG*d[5mC]*dG*dA*d[5mC]*dG*dG*k[5mC]*kT*kG) [Compound 1074146] | 91
1075074 (antisense kT*kA*kT*dA*dG*dT*dA*dA*dG*dA*d[5mC]*dT*dA*kA*kT*k[5mC]) [Compound 1075074] | 105
1075714 (kA*kA*kT*dT*dA*d[5mC]*dA*dA*dT*d[5mC]*dA*dA*d[5mC]*k[5mC]*kT*kT; antisense) [Compound 1075714] | 42
1075010 (antisense kA*kA*kT*dA*dA*dT*d[5mC]*dG*dA*dA*d[5mC]*dA*dT*kT*kG*kT) [Compound 1075010] | 88

Same assay, conditions: Table 17; A-431 cells, 5,000 cells per well, free uptake, 2,000 nM, approximately 48 hours; RTS4814; normalized to RIBOGREEN; Yap1 mRNA relative to untreated control cells

Substance | YAP1 (% UTC)
1074179 (antisense k[5mC]*kG*kG*dG*dA*dT*d[5mC]*d[5mC]*dA*dT*dG*dG*d[5mC]*kT*kT*k[5mC]) [Compound 1074179] | 49
1076355 (k[5mC]*kT*kA*d[5mC]*dA*dA*dA*dA*dG*dA*dG*d[5mC]*dT*kA*kT*kG; antisense) [Compound 1076355] | 92
1074403 (antisense kG*k[5mC]*kT*dT*dA*dT*dG*dG*dA*dA*dA*dT*dT*kT*k[5mC]*k[5mC]) [Compound 1074403] | 9
1074499 (kT*kA*k[5mC]*dA*dA*dT*dA*dA*d[5mC]*d[5mC]*dA*dT*d[5mC]*k[5mC]*k[5mC]*kA; antisense) [Compound 1074499] | 10
1075651 (kT*kA*kT*dA*dT*dT*dA*d[5mC]*dA*dA*dT*d[5mC]*d[5mC]*k[5mC]*kA*kG; antisense) [Compound 1075651] | 57
1075811 (kA*kT*kT*dG*dT*dA*dG*d[5mC]*dA*dA*dT*dA*dG*kA*kG*kT; antisense) [Compound 1075811] | 10
1074787 (k[5mC]*kA*kA*d[5mC]*d[5mC]*dA*dT*dA*dA*dG*dT*dA*dG*kA*kT*k[5mC]; antisense) [Compound 1074787] | 13
1074691 (antisense k[5mC]*k[5mC]*k[5mC]*dT*d[5mC]*d[5mC]*d[5mC]*d[5mC]*d[5mC]*dT*dA*dA*dG*k[5mC]*kT*kA) [Compound 1074691] | 76

Same assay, conditions: Yap1 mRNA remaining as percent of untreated control; 3-10-3 cEt gapmers; A-431 cells; Table 36

Substance | YAP1 (% UTC)
1075606 (antisense kG*k[5mC]*kT*dA*dA*dA*d[5mC]*d[5mC]*dT*dA*d[5mC]*dA*d[5mC]*kG*k[5mC]*kT) [compound 1075606] | 82
1074166 (antisense kA*k[5mC]*k[5mC]*d[5mC]*dA*dG*dG*d[5mC]*dG*dA*dG*d[5mC]*dG*kA*kG*kG) [compound 1074166] | 72
1076054 (k[5mC]*kA*kT*dT*dA*dG*dA*d[5mC]*dT*dT*dT*d[5mC]*dT*kG*kT*k[5mC]; antisense) [compound 1076054] | 21
1075350 (antisense kG*kA*kT*dT*dA*dA*dA*dG*d[5mC]*dT*d[5mC]*dA*dT*kT*kG*kA) [compound 1075350] | 62
1075318 (antisense kA*kT*k[5mC]*d[5mC]*dT*dA*dA*dA*dG*d[5mC]*d[5mC]*dA*d[5mC]*kT*kG*k[5mC]) [compound 1075318] | 72
1074294 (antisense kT*kT*kG*dG*dA*dG*dT*dT*dG*d[5mC]*dT*dG*d[5mC]*k[5mC]*kA*k[5mC]) [compound 1074294] | 80

Same assay, conditions: Yap1 mRNA remaining as percent of untreated control; 3-10-3 cEt gapmers; A-431 cells; Table 37

Substance | YAP1 (% UTC)
1075223 (kG*kT*kT*dA*dA*dA*dA*dG*dT*dG*dA*dA*d[5mC]*k[5mC]*k[5mC]*kA; antisense) [compound 1075223] | 19 % UTC
1074519 (kA*k[5mC]*kT*dA*d[5mC]*dT*dA*dG*dT*d[5mC]*dA*dT*dG*kT*kA*kT; antisense) [compound 1074519] | 45 % UTC
1076151 (kT*kA*kT*dT*dT*dA*dT*dT*dA*dA*d[5mC]*dT*d[5mC]*kA*k[5mC]*kG; antisense) [compound 1076151] | 14 % UTC
1075479 (kG*kA*k[5mC]*dA*dA*dT*dA*dA*dA*dT*d[5mC]*dT*dG*k[5mC]*k[5mC]*kT; antisense) [compound 1075479] | 77 % UTC
1074423 (k[5mC]*kA*kA*dA*d[5mC]*dA*dG*dG*d[5mC]*dT*d[5mC]*dA*d[5mC]*kT*kT*k[5mC]; antisense) [compound 1074423] | 4* % UTC
1075959 (kG*kA*kT*dT*dA*dT*dT*dA*dT*dT*dG*d[5mC]*dA*kG*k[5mC]*kT; antisense) [compound 1075959] | 15 % UTC

Same assay, conditions: table after Table 37, headed TABLE 32 (gapmers targeting SEQ ID NO.: 3); A-431 cells, free uptake, 2,000 nM, approximately 48 hours, RTS4814

Substance | YAP1 (% UTC)
1074880 (k[5mC]*kT*k[5mC]*d[5mC]*dT*dG*d[5mC]*d[5mC]*dG*dA*dA*dG*d[5mC]*kA*kG*kT; antisense) [compound 1074880] | 101
1074882 (kG*k[5mC]*kT*dA*dA*d[5mC]*dT*d[5mC]*d[5mC]*dT*dG*d[5mC]*d[5mC]*kG*kA*kA; antisense) [compound 1074882] | 73
1074885 (kA*kG*kG*dG*d[5mC]*dT*dA*dA*d[5mC]*dT*d[5mC]*d[5mC]*dT*kG*k[5mC]*k[5mC]; antisense) [compound 1074885] | 115
